# “Also recorded” adds a separate entry of the source.
# Experiments:
# IL-1α = assay: Rat apical periodontitis model: level of expression of IL-1α in the lesions by real-time PCR; format: in vivo; conditions: male Wistar rats, 150 mg/kg orally twice per day, after 21 days, vs control group
# Procedure: (§1) An experiment was conducted using six-week-old male Wistar rats. After the pulp of the mandibular first molar was exposed using a round bar, apical periodontitis was induced by extracting the pulp and opening it inside the oral cavity. In the experimental groups, monosodium (2S,3S)-3-[[(1S)-1-isobutozymethyl-3-methylbutyl]-carbamoyl]oxirane-2-carboxylate (compound A: 150 mg/kg) was orally administered twice per day. A non-administration group was used as a control. After 21 days, the rats were euthanized and the jawbone surrounding each mandibular molar was extracted. The left side was fixed in 4% paraformaldehyde/phosphate buffer solution (PBS) (4° C., 12 hours), and then the size of the apical lesion was measured by micro-CT imaging (Shimadzu SMX-90CT). After that, it was decalcified with 15% EDTA solution and embedded in OCT compound, and frozen slices 7 μm thick were made. […] On the right side, the lesion portion surrounding the apex was extracted as a lump together with the apex, and after RNA extraction (Qiagen: RNeasy Lipid Tissue Mini Kit), cDNA was created by ordinary methods (Invitrogen: Superscript III), and the levels of expression of inflammatory cytokines (IL-1α and IL-6) were measured by real-time PCR (BioRad: DNA Engine Opticon 2; Invitrogen: Platinum SYBR Green qPCR SuperMix).
# [1] = system: rat experimental apical periodontitis; assay: Rat apical periodontitis model: size of apical lesions by micro-CT; format: in vivo; conditions: male Wistar rats, 150 mg/kg orally twice per day
# Procedure: Using a rat apical periodontitis model, pharmacological tests were conducted for monosodium (2S,3S)-3-[[(1S)-1-isobutozymethyl-3-methylbutyl]-carbamoyl]oxirane-2-carboxylate.
# as §1, with “SMX-90CT).” for “SMX-90CT). After that, it was decalcified with 15% EDTA solution and embedded in OCT compound, and frozen slices 7 μm thick were made.”
# IL-6 = assay: Rat apical periodontitis model: level of expression of IL-6 in the lesions by real-time PCR; format: in vivo; conditions: male Wistar rats, 150 mg/kg orally twice per day, after 21 days, vs control group
# Procedure: as §1
# [2] = system: osteoclasts on the alveolar bone surrounding the apex; assay: Rat apical periodontitis model: histological examination (HE and TRAP staining) of osteoclasts; format: in vivo; conditions: male Wistar rats, 150 mg/kg orally twice per day, after 21 days, vs control group
# Procedure: as §1
# cathepsin K = target: T1, cathepsin K (Homo sapiens, UniProt P43235); conditions: known from Patent Reference 4 (WO 99/11640); cited from earlier work
# T1 sequence (P43235 115-329): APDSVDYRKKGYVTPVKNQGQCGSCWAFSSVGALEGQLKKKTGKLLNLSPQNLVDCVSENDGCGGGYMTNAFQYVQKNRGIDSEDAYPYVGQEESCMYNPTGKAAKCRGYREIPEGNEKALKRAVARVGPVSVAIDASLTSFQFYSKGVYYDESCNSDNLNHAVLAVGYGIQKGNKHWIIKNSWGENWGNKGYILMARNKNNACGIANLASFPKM
smiles,measurement,setting,value
"CC(C)COC[C@H](CC(C)C)NC(=O)[C@H]1O[C@@H]1C(=O)[O-].[Na+] [compound A, monosodium (2S,3S)-3-[[(1S)-1-isobutozymethyl-3-methylbutyl]-carbamoyl]oxirane-2-carboxylate]",level of expression of IL-1α in the lesions,IL-1α,significantly suppressed
same,suppressive effect against progression of rat experimental apical periodontitis,[1]; 21 days,excellent suppressive effect
same,size of apical lesions by micro-CT,"[1]; after 21 days, vs control group, 150 mg/kg",smaller apical lesions were formed; also recorded: their size was smaller than in the control group
same,level of expression of IL-6 in the lesions,IL-6,significantly suppressed
same,number of osteoclasts on the alveolar bone surrounding the apex (histological examination),[2],their number tended to be small
same,cathepsin K inhibiting action,cathepsin K,has a cathepsin K inhibiting action

# From patent US20130018094A1, “Prophylactic or Therapeutic Agent For Gum Disease or Apical Periodontitis” (priority 2009, published 2013)
